Values quoted from earlier work as cited in publication PMC10720383, “Acetylcholinesterase Inhibition in Rats and Humans Following Acute Fenitrothion Exposure Predicted by Physiologically Based Kinetic Modeling-Facilitated Quantitative In Vitro to In Vivo Extrapolation” (Environmental Science & Technology, 2023).
Read-outs that look alike come from different tables or passages of the source.

Assays:
[1] = not clear if experimental or in silico, cited from earlier work
[2] = assumed default for neutral and acidic compounds, no experimental data; cited from earlier work
[3] = humans; diazinon constant used for FNT; cited from earlier work
[4] = rats; diazinon constant used for FNT; cited from earlier work

Structure (SMILES)	LogP, reported data ([1]; ref OECD 1994)	pKa, reported data ([1]; ref Shahpoury et al. 2018)	blood plasma ratio (BPr) [2]	absorption rate constant from intestine to liver (kaI) [3] [h⁻¹]	absorption rate constant from stomach to liver (kaS) [3] [h⁻¹]	transfer rate constant from stomach to intestine (ksI) [3] [h⁻¹]	absorption rate constant from intestine to liver (kaI) [4] [h⁻¹]	absorption rate constant from stomach to liver (kaS) [4] [h⁻¹]	transfer rate constant from stomach to intestine (ksI) [4] [h⁻¹]
Cc1cc(O)ccc1[N+](=O)[O-] [MNP, 3-methyl-4-nitrophenol]	2.12	7.33	0.55						
CCOP(=S)(OCC)Oc1cc(C)nc(C(C)C)n1 [diazinon]				0.59	0.32	0.48	0.59	0.1	0.48
